This note sets out measurements from PMC4694998, “Suppression of β-catenin/TCF transcriptional activity and colon tumor cell growth by dual inhibition of PDE5 and 10” (Oncotarget, 2015).

Experiment [1] deals with β-catenin/TCF transcriptional activity in HCT116 cells. The class given is cell-based. As to conditions: HCT116, 24 hours of treatment. On the procedure:
Cells were seeded at a density of 5 × 10^4 cells per well in 24-well tissue culture plates and incubated overnight at 37°C. Cells were transiently transfected with 0.1 μg TOP-FLASH constructs (Millipore) and 0.1 μg β-galactosidase-expressing vector (Promega). After 24 hours of transfection, cells were treated with ADT-094 or vehicle for 24 hours. At the end of treatment, cells were lysed and both luciferase and β-galactosidase activities were measured using kits from Promega. All luciferase activity was normalized to β-galactosidase activity.

The subject of experiment [2] is NCM460 normal colonocytes. In words: Growth assay (Cell Titer Glo), NCM460 normal colonocytes. It is filed as cell-based, human. On the procedure: Human colon tumor cell lines, HCT116, HT29, SW480 and Caco-2 were obtained from the American Type Culture Collection (ATCC) and grown under standard cell culture conditions in RPMI 1640 medium containing 5% serum at 37°C in a humidified atmosphere with 5% CO2. The human colonocyte line, NCM460, that is derived from normal human colon mucosa was obtained from INCELL and grown in INCELL’s enriched M3:10 medium with 10% serum as recommended by supplier. All cell lines were expanded upon delivery, and numerous aliquots of low passage cells were preserved in liquid N2. Cells were passaged no longer than 2 months. Tumor cell lines obtained from ATCC were characterized by STR profiling as performed by ATCC. The NCM460 line was characterized by INCELL as described previously (e.g. tumorigenicity testing). No additional re-authentication of the cell lines was performed except for experimental reasons (e.g. confirmation of cell doubling time, morphology, sensitivity to SS, PDE5/10 expression levels, etc).
Cells were plated in 96-well microtiter plates at a density of 5,000 cells per well. For drug treatment, cells were treated with compound or vehicle, and incubated at 37°C for 72 hours. All growth assays were performed in 5% serum unless otherwise noted. Deionized water was used as vehicle control for papaverine. For siRNA assays, cells were transfected with siRNA under the same condition described above. The effect of treatment on cell growth was measured using the Cell Titer Glo Assay as specified by the manufacturer (Promega).
(§1) The IC50 values were determined as described previously. All experiments were repeated a minimum of three times to determine the reproducibility of the results. All error bars represent standard error of the mean (SEM). Statistical analysis of differences between samples was performed using the Student’s t-test. A P value of < 0.05 was considered statistically significant.

A further experiment deals with T1, purified ovine COX-1 (Ovis aries, UniProt P05979).
T1 construct: purchased Cayman
T1 sequence (P05979 25-600): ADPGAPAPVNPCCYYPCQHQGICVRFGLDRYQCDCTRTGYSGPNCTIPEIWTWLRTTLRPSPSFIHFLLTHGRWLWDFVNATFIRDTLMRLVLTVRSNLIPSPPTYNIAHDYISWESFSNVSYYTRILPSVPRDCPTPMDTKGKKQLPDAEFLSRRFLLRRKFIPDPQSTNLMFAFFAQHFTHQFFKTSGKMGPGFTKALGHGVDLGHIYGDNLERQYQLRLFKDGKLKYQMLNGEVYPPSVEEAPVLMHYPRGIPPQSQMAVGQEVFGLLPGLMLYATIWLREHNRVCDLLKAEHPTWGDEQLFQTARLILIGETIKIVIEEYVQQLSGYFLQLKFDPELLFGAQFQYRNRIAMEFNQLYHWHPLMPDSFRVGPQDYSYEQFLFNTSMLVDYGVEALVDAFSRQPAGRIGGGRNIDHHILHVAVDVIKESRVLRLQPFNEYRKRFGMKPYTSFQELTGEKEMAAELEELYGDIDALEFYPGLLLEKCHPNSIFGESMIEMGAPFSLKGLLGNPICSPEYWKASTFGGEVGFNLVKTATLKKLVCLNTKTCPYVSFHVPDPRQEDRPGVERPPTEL
In words: COX-1 colorimetric assay. It is filed as biochemical. As to the method:
COX-1 and COX-2 activities were measured using purified ovine COX-1 and COX-2 with colorimetric assay kits obtained from Cayman as previously reported. The activities of COX-1 and COX-2 were measured after the addition of arachidonic acid and incubation at 25°C for 5 min by absorbance at 590 nm as specified by the manufacturer.
as §1

In experiment [3] the test system is PKG/PKA activity (VASP Ser239/Ser157) in Caco-2 colon tumor cells. In words: Western blotting of VASP phosphorylation, Caco-2. The class given is cell-based, human. On the procedure:
Western blotting was performed as described previously. Cells were treated with ADT-094 or vehicle for 8 hours before cell lysates were collected.

Experiment [4] concerns HCT116 colon tumor cells. Put plainly: Cell proliferation assay (EdU incorporation, flow cytometry). The settings on record: 24 hours treatment with 0.1 μmol/L. The class given is cell-based, human. As to the method: The antiproliferative activity of ADT-094 was determined by measuring EdU (5-ethynyl-2′-deoxyuridine) incorporation during DNA synthesis. Cells were plated at a density of 1.5 × 10^6 cells per 10 cm tissue culture dish and incubated overnight at 37°C. After growing the cells in serum-free media overnight, the cells were treated with ADT-094 or vehicle in medium supplemented with 10% serum for 6 hours. A final concentration of 10 μmol/L EdU was added to each dish and incubated for an additional 18 hours. Cells were harvested and analyzed using the Click-iT EdU Alexa Fluor 488 Proliferation Assay (Invitrogen) according to the manufacturer’s specifications. The percentage of proliferating cells was quantified using a BD FACSCalibur flow cytometer.

Experiment [5] deals with HCT116 colon tumor cells. Put plainly: Growth assay (Cell Titer Glo), HCT116. It is filed as cell-based, human. As to conditions: Homo sapiens, HCT-116; 72 hours of treatment; read-out: HCT116 growth IC50. As to the method: All cell lines were expanded upon delivery, and numerous aliquots of low passage cells were preserved in liquid N2. Cells were passaged no longer than 2 months. Tumor cell lines obtained from ATCC were characterized by STR profiling as performed by ATCC. The NCM460 line was characterized by INCELL as described previously (e.g. tumorigenicity testing). No additional re-authentication of the cell lines was performed except for experimental reasons (e.g. confirmation of cell doubling time, morphology, sensitivity to SS, PDE5/10 expression levels, etc). Cells were plated in 96-well microtiter plates at a density of 5,000 cells per well. For drug treatment, cells were treated with compound or vehicle, and incubated at 37°C for 72 hours. […] For siRNA assays, cells were transfected with siRNA under the same condition described above. The effect of treatment on cell growth was measured using the Cell Titer Glo Assay as specified by the manufacturer (Promega). The IC50 values were determined as described previously. All experiments were repeated a minimum of three times to determine the reproducibility of the results. All error bars represent standard error of the mean (SEM). Statistical analysis of differences between samples was performed using the Student’s t-test.

As for `COc1ccc2c(c1)C(CC(=O)NCc1ccco1)=C(C)/C2=C/c1cc(OC)c(OC)c(OC)c1` [ADT-094, (Z)-N-(furan-2-ylmethyl)-2-(5-methoxy-2-methyl-1-(3,4,5-trimethoxybenzylidene)-1H-inden-3-yl) acetamide], the β-catenin/TCF transcriptional activity result in experiment [1] is “significantly inhibited”. Also, the IC50 (in general, the concentration at which inhibition is half-maximal) in experiment [2] (Homo sapiens, NCM460, Figure 3C, luciferase-based ATP assay, 72 hours, read-out: NCM460 growth IC50) was above 10 µM; on purified ovine COX-1 (Figure 3A), 81 µM; with HCT116 colon tumor cells [5], 0.1 µM. For the same compound, in experiment [2] (in words), the “growth of normal colonocytes (tumor cell selectivity)” value is on record as “essentially refractory to treatment”. On purified ovine COX-1 (in words), the COX-1 inhibitory activity result was “essentially lacks”. Besides, the “VASP phosphorylation at Ser239” value in experiment [3] (Caco-2) is given as “Dose-dependent increases”. Moreover, the “PKA activity (VASP phosphorylation at Ser157)” value in experiment [3] (Caco-2, at concentrations that cause PKG activation) is listed as “did not affect PKA activity”. In the experiment on HCT116 colon tumor cells [4], the “proliferation (EdU incorporation)” value is “inhibited the proliferation”.
